Assay results taken from ChEMBL document CHEMBL1201862, “PubChem BioAssay data set” (2004).
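Dose response: 5 concentrations. Exposure: 48 h. Format: 96-well plates. Endpoint: linear interpolation; highest concentration if not reached. GI50: concentration for 50% inhibition of growth.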 The source made the active and inactive calls. Cut-off read from the data, not from the text of the source: active = GI50 up to about 1.1 µM and inactive = higher.

Key:
Assay in all cases: inhibition of tumour cell growth, NCI panel, 48 h
786-0 = system: 786-0
EKVX = system: EKVX
COLO 205 = system: COLO 205
MDA-N = system: MDA-N
M14 = system: M14
SNB-19 = system: SNB-19
BT-549 = system: BT-549
OVCAR-8 = system: OVCAR-8
MDA-MB-435 = system: MDA-MB-435
K562 = system: K562
OVCAR-5 = system: OVCAR-5
UACC-62 = system: UACC-62
Hs-578T = system: Hs-578T
SK-MEL-28 = system: SK-MEL-28
NCI-H226 = system: NCI-H226
UACC-257 = system: UACC-257

Structure (SMILES) | GI50 (786-0) | GI50 (EKVX) | GI50 (COLO 205) | GI50 (MDA-N) | GI50 (M14) | GI50 (SNB-19) | GI50 (BT-549) | GI50 (OVCAR-8) | GI50 (MDA-MB-435) | GI50 (K562) | GI50 (OVCAR-5) | GI50 (UACC-62) | GI50 (Hs-578T) | GI50 (SK-MEL-28) | GI50 (NCI-H226) | GI50 (UACC-257)
OC(C/C(=N\N=C(/CC(O)(C(F)(F)F)C(F)(F)F)c1ccccc1)c1ccccc1)(C(F)(F)F)C(F)(F)F | > 10 µM (inactive) | > 10 µM (inactive) | > 10 µM (inactive) | > 10 µM (inactive) | > 10 µM (inactive) | > 10 µM (inactive) | > 10 µM (inactive) | > 10 µM (inactive) | > 10 µM (inactive) | > 10 µM (inactive) | > 10 µM (inactive) | > 10 µM (inactive) | > 10 µM (inactive) | > 10 µM (inactive) | > 10 µM (inactive) | > 10 µM (inactive)
CCOC(=O)/C=C1/Nc2cc(F)c(F)cc2NC1=O | > 100 µM (inactive) | > 100 µM (inactive) | > 100 µM (inactive) | > 100 µM (inactive) | > 100 µM (inactive) | > 100 µM (inactive) | > 100 µM (inactive) | > 100 µM (inactive) | > 100 µM (inactive) | > 100 µM (inactive) | > 100 µM (inactive) | > 100 µM (inactive) | > 100 µM (inactive) | > 100 µM (inactive) | > 100 µM (inactive) | > 100 µM (inactive)
O=C(N/N=C/c1ccc([N+](=O)[O-])cc1)c1cccc2nc3ccccc3nc12 | > 100 µM (inactive) | > 100 µM (inactive) | 2.65 µM (inactive) | > 100 µM (inactive) | > 100 µM (inactive) | > 55.8 µM (inactive) | > 55.8 µM (inactive) | > 90.8 µM (inactive) | > 100 µM (inactive) | > 70.3 µM (inactive) | > 86.1 µM (inactive) | > 100 µM (inactive) | 9.75 µM (inactive) | > 100 µM (inactive) | > 100 µM (inactive) | > 100 µM (inactive)
CCN(CC)C(=O)Cn1c2c(c3ccccc31)CCCC2 | > 100 µM (inactive) | > 100 µM (inactive) | > 100 µM (inactive) | 77.8 µM (inactive) | > 100 µM (inactive) | > 100 µM (inactive) | > 100 µM (inactive) | > 100 µM (inactive) | 91.4 µM (inactive) | 68.4 µM (inactive) | > 100 µM (inactive) | 99.8 µM (inactive) | 24.5 µM (inactive) | > 100 µM (inactive) |  | > 100 µM (inactive)
CC1=NC2(CCCCC2)N(Cl)C(=O)C1SC#N (stereo unspecified) | 17.5 µM (inactive) | 17.5 µM (inactive) | 63.1 µM (inactive) | 15.8 µM (inactive) | 16.2 µM (inactive) | 23.4 µM (inactive) | 14.4 µM (inactive) | 17.9 µM (inactive) | 19.2 µM (inactive) | 9.46 µM (inactive) | 22.8 µM (inactive) | 13.4 µM (inactive) | 41 µM (inactive) | 18 µM (inactive) | 24 µM (inactive) | 
CC(=O)/N=C1\NC(=O)/C(=C/c2ccccc2Cl)N1C | > 100 µM (inactive) | 26.4 µM (inactive) | > 100 µM (inactive) | > 100 µM (inactive) | > 100 µM (inactive) | > 100 µM (inactive) | > 100 µM (inactive) | > 100 µM (inactive) | > 100 µM (inactive) |  | > 100 µM (inactive) | > 100 µM (inactive) | > 100 µM (inactive) | > 100 µM (inactive) | > 100 µM (inactive) | > 100 µM (inactive)
COC(=O)C1(SC)C2CCC3C2CCC31 (stereo unspecified) | > 100 µM (inactive) | > 100 µM (inactive) | > 100 µM (inactive) | > 100 µM (inactive) | > 100 µM (inactive) | > 100 µM (inactive) | > 100 µM (inactive) | > 100 µM (inactive) | > 100 µM (inactive) | > 100 µM (inactive) | > 100 µM (inactive) |  | > 100 µM (inactive) | > 100 µM (inactive) | > 100 µM (inactive) | > 100 µM (inactive)
CC1(C)OC[C@@H](C[C@H](O)COCc2ccccc2)O1 | > 100 µM (inactive) | > 100 µM (inactive) | > 100 µM (inactive) | > 100 µM (inactive) | > 100 µM (inactive) | > 100 µM (inactive) | > 100 µM (inactive) | > 100 µM (inactive) | > 100 µM (inactive) | > 100 µM (inactive) | > 100 µM (inactive) | > 100 µM (inactive) | > 100 µM (inactive) | > 100 µM (inactive) | > 100 µM (inactive) | > 100 µM (inactive)
CCOC(=O)C(NC(=O)c1ccccc1)(N1CCOCC1)C(F)(F)F (stereo unspecified) | > 100 µM (inactive) | > 100 µM (inactive) | > 100 µM (inactive) | > 100 µM (inactive) | > 100 µM (inactive) | > 100 µM (inactive) | > 100 µM (inactive) | > 100 µM (inactive) | > 100 µM (inactive) | > 100 µM (inactive) | > 100 µM (inactive) | > 100 µM (inactive) | > 100 µM (inactive) | > 100 µM (inactive) | > 100 µM (inactive) | > 100 µM (inactive)
CCn1c(SCC(=O)NNC(=S)Nc2ccc(Cl)cc2)nc2ccccc2c1=O | 45.1 µM (inactive) | > 100 µM (inactive) | 70 µM (inactive) | 55.3 µM (inactive) | > 100 µM (inactive) | > 100 µM (inactive) | 31.8 µM (inactive) | 43 µM (inactive) | 42.1 µM (inactive) | 30.3 µM (inactive) | > 100 µM (inactive) | 35.2 µM (inactive) | > 100 µM (inactive) | 56.6 µM (inactive) | > 100 µM (inactive) | 53.2 µM (inactive)
C1=C[C@@H]2c3ccc4cnccc4c3NC[C@@H]2C1 | > 100 µM (inactive) | 16.8 µM (inactive) | > 100 µM (inactive) | > 100 µM (inactive) | > 100 µM (inactive) | > 100 µM (inactive) | > 100 µM (inactive) | > 100 µM (inactive) | > 100 µM (inactive) | > 100 µM (inactive) | > 100 µM (inactive) | 58.2 µM (inactive) | 46.8 µM (inactive) | > 100 µM (inactive) | > 100 µM (inactive) | > 100 µM (inactive)
O=S(=O)(O)c1ccc2c(/N=N\c3ccc(F)cc3)c(O)c(S(=O)(=O)O)cc2c1 | > 100 µM (inactive) | > 100 µM (inactive) | > 100 µM (inactive) | > 100 µM (inactive) | > 100 µM (inactive) | > 100 µM (inactive) | > 100 µM (inactive) | > 100 µM (inactive) | > 100 µM (inactive) | > 100 µM (inactive) | > 100 µM (inactive) | > 100 µM (inactive) | > 100 µM (inactive) | > 100 µM (inactive) |  | > 100 µM (inactive)
NC(Cc1ccc(S(=O)(=O)O)cc1)C(=O)NC(Cc1ccc(S(=O)(=O)O)cc1)C(=O)O (stereo unspecified) | > 100 µM (inactive) | > 100 µM (inactive) | > 100 µM (inactive) | > 100 µM (inactive) | > 100 µM (inactive) |  | > 100 µM (inactive) | > 100 µM (inactive) | > 100 µM (inactive) | 0.0475 µM (active) | > 100 µM (inactive) | > 100 µM (inactive) | > 100 µM (inactive) | > 100 µM (inactive) | > 100 µM (inactive) | > 100 µM (inactive)
Clc1cc(OC2C3CC4CC(C3)CC2C4)nc(Cl)n1 (stereo unspecified) | 16.8 µM (inactive) | 7.29 µM (inactive) | 18.6 µM (inactive) | 18.8 µM (inactive) | 16.2 µM (inactive) | 36.4 µM (inactive) | 19.8 µM (inactive) | 26.1 µM (inactive) | 17.4 µM (inactive) | 4.62 µM (inactive) | 21.3 µM (inactive) | 12.2 µM (inactive) | 18.9 µM (inactive) | 15 µM (inactive) |  | 13.9 µM (inactive)
O=C1C(=Cc2ccc(O)cc2)N=C(c2ccccc2)N1n1c(-c2ccccc2)nc2ccccc2c1=O | > 100 µM (inactive) | > 100 µM (inactive) | > 100 µM (inactive) | > 100 µM (inactive) | > 100 µM (inactive) | > 100 µM (inactive) | > 100 µM (inactive) | > 100 µM (inactive) | > 100 µM (inactive) | > 10 µM (inactive) |  | 97.1 µM (inactive) | 81.5 µM (inactive) | 88.9 µM (inactive) | > 100 µM (inactive) | > 100 µM (inactive)
CC1CC[C@@]2(OC1)OC1C[C@H]3[C@@H]4C/C(=N\N(C)C)[C@@]5(O)CC(O)CC[C@]5(C)[C@H]4CC[C@]3(C)C1[C@@H]2C (stereo partly specified) | 40.6 µM (inactive) |  | 43.9 µM (inactive) | 23.3 µM (inactive) | > 100 µM (inactive) | 38.7 µM (inactive) | 51.2 µM (inactive) |  | 29.8 µM (inactive) | 38.7 µM (inactive) | 43.5 µM (inactive) | 37.5 µM (inactive) | 33.3 µM (inactive) | > 100 µM (inactive) | > 100 µM (inactive) | 67.5 µM (inactive)
O=c1[nH]c(=S)[nH]cc1CN1CCOCC1 | > 100 µM (inactive) | > 100 µM (inactive) | > 100 µM (inactive) | > 100 µM (inactive) | > 100 µM (inactive) | > 100 µM (inactive) | > 100 µM (inactive) | > 100 µM (inactive) | > 100 µM (inactive) | > 100 µM (inactive) | > 100 µM (inactive) | > 100 µM (inactive) | > 100 µM (inactive) | > 100 µM (inactive) |  | > 100 µM (inactive)
Cc1nn(C(=O)Cc2ccccc2)c2c1C(c1ccc(O)cc1)SC(=N)N2 (stereo unspecified) | > 100 µM (inactive) | > 100 µM (inactive) | > 100 µM (inactive) | > 100 µM (inactive) | > 100 µM (inactive) | > 100 µM (inactive) | > 100 µM (inactive) | > 100 µM (inactive) | > 100 µM (inactive) | > 100 µM (inactive) |  | > 100 µM (inactive) | > 100 µM (inactive) | > 100 µM (inactive) | > 100 µM (inactive) | > 100 µM (inactive)
